According to patent publication US20100204224A1, “AZACYCLIC COMPOUNDS AS INHIBITORS OF SENSORY NEURONE SPECIFIC SODIUM CHANNELS” (priority 2005, published 2010):
Where a name gives a salt, the structure may show the parent alone.

target: T1, human Nav1.8 (hNav1.8) ion channel (Homo sapiens, UniProt Q9Y5Y9); assay: Inhibition of human Nav1.8 stably expressed in SH-SY-5Y cells (membrane potential dye fluorescence assay); assay type: cell-based; settings: SH-SY-5Y hNav1.8 cells; FLIPR membrane potential dye; 10 μM pyrethroid, 250 nM TTX; test concentration range 100 μM-0.05 μM; read-out: hNav1.8 IC50
T1 construct: expressed in transfected cells
Description: Inhibition of Human Nav1.8 stably expressed in SH-SY-5Y Cells
A SH-SY-5Y neuroblastoma cell line stably expressing the human Nav1.8 (hNav1.8) ion channel was constructed. This cell line has been used to develop a medium to high throughput assay for determining the ability of test compounds to inhibit membrane depolarisation mediated via the hNav1.8 channel.
SH-SY-5Y hNav1.8 are grown in adherent monolayer culture using 50:50 Ham's F-12/EMEM tissue culture medium supplemented with 15% (v/v) foetal bovine serum; 2 mM L-glutamine, 1% NEAR and 600 μg·ml^−1 Geneticin sulphate. Cells are removed from the tissue culture flask using trypsin/EDTA and re-plated into black walled, clear bottom 96-well assay plates at 50,000 cells·well^−1 24 hours prior to assay.
On the day of assay the cell assay plates are washed to remove cell culture medium using a sodium free assay buffer (145 mM tetramethyl ammonium chloride; 2 mM calcium chloride; 0.8 mM magnesium chloride hexahydrate; 10 mM HEPES; 10 mM glucose; 5 mM potassium chloride, pH 7.4). Fluorescent membrane potential dye solution (FLIPR™ membrane potential dye, Molecular Devices Corporation), containing 10 μM of a pyrethroid to prevent channel inactivation and 250 nM tetrodotoxin (TTX) to reduce interference from TTX-sensitive sodium channels present in the cell line. Test compound, initially dissolved in dimethyl sulfoxide but further diluted in sodium free buffer, is added to achieve the final test concentration range of 100 μM-0.05 μM.
Cell plates are incubated for 30 minutes at room temperature to allow equilibration of dye and test compound. Plates are then transferred to a fluorescence plate reader for fluorescence measurement using an excitation wavelength of 530 nm whilst measuring fluorescence emission at 565 nm. Baseline fluorescence levels are first determined before the addition of a sodium containing buffer (220 mM sodium chloride; 2 mM calcium chloride; 0.8 mM magnesium chloride hexahydrate; 10 mM HEPES; 10 mM glucose; 5 mM potassium chloride. pH 7.4) to cause membrane depolarisation in those cells where channel block has not been effected (final sodium concentration=72.5 mM). Membrane depolarisation is registered by an increase in fluorescence emission at 565 nm.
The change in fluorescence seen in each test well upon the addition of sodium containing buffer is calculated relative to the baseline fluorescence for that well. This figure is then used for calculating the IC50 for each test compound.

T1 sequence (Q9Y5Y9 whole entry): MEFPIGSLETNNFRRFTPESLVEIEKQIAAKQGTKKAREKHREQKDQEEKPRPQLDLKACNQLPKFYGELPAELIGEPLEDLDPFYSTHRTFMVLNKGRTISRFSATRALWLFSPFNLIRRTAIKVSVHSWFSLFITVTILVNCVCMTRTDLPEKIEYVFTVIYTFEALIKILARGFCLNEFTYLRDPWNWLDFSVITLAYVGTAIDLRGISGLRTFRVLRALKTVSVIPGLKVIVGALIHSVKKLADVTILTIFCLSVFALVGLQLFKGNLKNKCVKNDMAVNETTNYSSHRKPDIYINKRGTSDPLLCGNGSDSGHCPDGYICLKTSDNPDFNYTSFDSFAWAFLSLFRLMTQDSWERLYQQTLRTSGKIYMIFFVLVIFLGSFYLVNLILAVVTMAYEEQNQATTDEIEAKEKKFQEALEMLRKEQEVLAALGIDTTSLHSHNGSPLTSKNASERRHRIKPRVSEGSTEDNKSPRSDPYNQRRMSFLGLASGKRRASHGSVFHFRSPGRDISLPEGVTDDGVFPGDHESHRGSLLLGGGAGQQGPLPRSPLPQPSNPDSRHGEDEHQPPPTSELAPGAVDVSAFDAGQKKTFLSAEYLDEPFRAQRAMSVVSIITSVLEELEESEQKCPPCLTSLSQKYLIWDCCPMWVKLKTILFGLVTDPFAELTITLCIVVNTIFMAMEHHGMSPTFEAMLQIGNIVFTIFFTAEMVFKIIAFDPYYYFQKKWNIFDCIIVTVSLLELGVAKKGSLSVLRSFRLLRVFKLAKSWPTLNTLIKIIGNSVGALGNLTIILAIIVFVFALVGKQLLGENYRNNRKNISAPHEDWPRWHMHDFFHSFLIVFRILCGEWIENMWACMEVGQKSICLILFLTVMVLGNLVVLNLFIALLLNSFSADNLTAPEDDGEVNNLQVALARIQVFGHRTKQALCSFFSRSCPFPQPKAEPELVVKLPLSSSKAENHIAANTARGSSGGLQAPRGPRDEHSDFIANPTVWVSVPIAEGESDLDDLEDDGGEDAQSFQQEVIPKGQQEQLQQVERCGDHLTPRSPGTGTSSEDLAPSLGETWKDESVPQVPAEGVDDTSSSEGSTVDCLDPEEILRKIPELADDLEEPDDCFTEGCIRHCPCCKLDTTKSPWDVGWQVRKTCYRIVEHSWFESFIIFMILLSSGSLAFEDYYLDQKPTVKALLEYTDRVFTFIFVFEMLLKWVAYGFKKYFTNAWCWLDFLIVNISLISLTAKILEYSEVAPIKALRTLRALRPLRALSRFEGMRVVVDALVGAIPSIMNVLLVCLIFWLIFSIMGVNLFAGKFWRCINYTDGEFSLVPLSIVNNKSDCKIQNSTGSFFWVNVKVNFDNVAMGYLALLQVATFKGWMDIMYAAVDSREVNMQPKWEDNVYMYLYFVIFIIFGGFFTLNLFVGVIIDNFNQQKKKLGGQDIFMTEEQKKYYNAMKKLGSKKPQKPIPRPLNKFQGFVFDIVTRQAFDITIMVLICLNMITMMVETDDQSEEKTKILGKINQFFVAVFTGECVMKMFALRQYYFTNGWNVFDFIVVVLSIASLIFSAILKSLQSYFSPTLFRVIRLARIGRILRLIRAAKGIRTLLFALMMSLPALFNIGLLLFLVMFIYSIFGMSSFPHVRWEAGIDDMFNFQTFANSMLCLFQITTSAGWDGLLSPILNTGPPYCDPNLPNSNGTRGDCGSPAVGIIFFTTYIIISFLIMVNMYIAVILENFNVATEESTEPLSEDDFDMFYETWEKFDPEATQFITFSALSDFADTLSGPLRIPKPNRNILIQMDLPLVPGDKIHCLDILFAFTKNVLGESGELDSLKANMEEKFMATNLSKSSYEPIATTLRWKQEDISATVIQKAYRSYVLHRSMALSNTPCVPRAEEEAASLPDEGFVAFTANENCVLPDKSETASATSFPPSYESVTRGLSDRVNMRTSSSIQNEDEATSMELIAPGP

Structure (SMILES) | IC50 [nM]
COc1ccccc1CC(C)N1CC2CC1CN2C(=O)Nc1ccc(C(F)(F)F)cc1 (stereo not shown) [Example 86, 5-[2-(2-Methoxy-phenyl)-1-methyl-ethyl]-2,5-diaza-bicyclo[2.2.1]heptane-2-carboxylic acid (4-trifluoromethyl-phenyl)-amide] | 670
Cc1ccccc1C(C)N1CC2CC1CN2C(=O)Nc1ccc(OCCc2scnc2C)cc1 (stereo not shown) [Example 42, 5-(1-o-Tolyl-ethyl)-2,5-diaza-bicyclo[2.2.1]heptane-2-carboxylic acid {4-[2-(4-methyl-thiazol-5-yl)-ethoxy]-phenyl}-amide] | 2100
Cc1ccccc1C(C)N1CC2CC1CN2C(=O)Nc1ccc(OCCN2CCCC2=O)cc1 (stereo not shown) [Example 23, 5-(1-o-Tolyl-ethyl)-2,5-diaza-bicyclo[2.2.1]heptane-2-carboxylic acid {4-[2-(2-oxo-pyrrolidin-1-yl)-ethoxy]-phenyl}-amide] | ≥ 30000
CC(c1ccccc1Cl)N1CC2CC1CN2C(=O)Nc1ccc(Oc2ccc(F)cc2)nc1 (stereo not shown) [Example 182, 5-[1-(2-Chloro-phenyl)-ethyl]-2,5-diaza-bicyclo[2.2.1]heptane-2-carboxylic acid [6-(4-fluoro-phenoxy)-pyridin-3-yl]-amide methanesulfonate salt] | 270
CC(c1ccc(F)cc1)N1CC2CC1CN2C(=O)Nc1cccc(C(F)(F)F)c1 (stereo not shown) [Example 47, 5-[1-(4-Fluoro-phenyl)-ethyl]-2,5-diaza-bicyclo[2.2.1]heptane-2-carboxylic acid (3-trifluoromethyl-phenyl)-amide] | 2610
CC(c1ccccc1C(F)(F)F)N1CC2CC1CN2C(=O)Nc1ccc(Oc2ccccc2)cc1 (single isomer, unassigned) [Example 62, 5-[1-(2-Trifluoromethyl-phenyl)-ethyl]-2,5-diaza-bicyclo[2.2.1]heptane-2-carboxylic acid (4-phenoxy-phenyl)-amide] | 17200
CC(c1ccc(F)cc1Cl)N1CC2CC1CN2C(=O)c1ccc(Oc2ccc(F)cc2)cc1 (stereo not shown) [Example 163, {5-[1-(2-Chloro-4-fluoro-phenyl)-ethyl]-2,5-diaza-bicyclo[2.2.1]hept-2-yl}-[4-(4-fluoro-phenoxy)-phenyl]-methanone] | 17700
Cc1ccc(Oc2ccc(NC(=O)N3CC4CC3CN4C(C)c3ccccc3Cl)cc2)cc1 (stereo not shown) [Example 139, 5-[1-(2-Chloro-phenyl)-ethyl]-2,5-diaza-bicyclo[2.2.1]heptane-2-carboxylic acid (4-p-tolyloxy-phenyl)-amide] | 1160
CC(c1ccccc1C(F)(F)F)N1CC2CC1CN2C(=O)Nc1ccc(C(F)(F)F)cc1 (single isomer, unassigned) [Example 54, 5-[1-(2-Trifluoromethyl-phenyl)-ethyl]-2,5-diaza-bicyclo[2.2.1]heptane-2-carboxylic acid (4-trifluoromethyl-phenyl)-amide] | 1750
CC(c1ccc(Cl)cc1Cl)N1CC2CC1CN2C(=O)Nc1ccc(C(F)(F)F)cc1 (stereo not shown) [Example 120, 5-[1-(2,4-Dichloro-phenyl)-ethyl]-2,5-diaza-bicyclo[2.2.1]heptane-2-carboxylic acid (4-trifluoromethyl-phenyl)-amide] | 24500
Cc1ccccc1C(C)N1CC2CC1CN2C(=O)Nc1cccc(Oc2ccccc2)c1 (stereo not shown) [Example 8, 5-(1-o-Tolyl-ethyl)-2,5-diaza-bicyclo[2.2.1]heptane-2-carboxylic acid (3-phenoxy-phenyl)-amide] | 680
CC(Cc1ccc(Cl)cc1)N1CC2CC1CN2C(=O)Nc1ccc(C(F)(F)F)cc1 (stereo not shown) [Example 83, 5-[2-(4-Chloro-phenyl)-1-methyl-ethyl]-2,5-diaza-bicyclo[2.2.1]heptane-2-carboxylic acid (4-trifluoromethyl-phenyl)-amide] | 680
O=C(Nc1ccc(Cc2ccccc2)cc1)N1CC2CC1CN2C1Cc2ccc(F)cc2C1 (stereo not shown) [Example 124, 5-(5-Fluoro-indan-2-yl)-2,5-diaza-bicyclo[2.2.1]heptane-2-carboxylic acid (4-benzyl-phenyl)-amide] | 640
CC(c1c(F)cccc1Cl)N1CC2CC1CN2C(=O)c1ccc(Oc2ccc(F)cc2)cc1 (stereo not shown) [Example 167, {5-[1-(2-Chloro-6-fluoro-phenyl)-ethyl]-2,5-diaza-bicyclo[2.2.1]hept-2-yl}-[4-(4-fluoro-phenoxy)-phenyl]-methanone] | 2220
Cc1ccccc1C(C)N1CC2CC1CN2C(=O)Nc1ccc(OC2CCOCC2)cc1 (stereo not shown) [Example 22, 5-(1-o-Tolyl-ethyl)-2,5-diaza-bicyclo[2.2.1]heptane-2-carboxylic acid [4-(tetrahydro-pyran-4-yloxy)-phenyl]-amide] | 18900
Cc1ccccc1C(C)N1CC2CC1CN2C(=O)Nc1ccc(-c2ccccc2)cc1 (stereo not shown) [Example 38, 5-(1-o-Tolyl-ethyl)-2,5-diaza-bicyclo[2.2.1]heptane-2-carboxylic acid biphenyl-4-ylamide] | 1440
Cc1ccccc1C(C)N1CC2CC1CN2C(=O)Nc1ccc(OCCN2CCOCC2)cc1 (stereo not shown) [Example 44, 5-(1-o-Tolyl-ethyl)-2,5-diaza-bicyclo[2.2.1]heptane-2-carboxylic acid [4-(2-morpholin-4-yl-ethoxy)-phenyl]-amide] | 26800
O=C(Nc1ccc(Oc2ccc(F)cc2)cc1)N1CCC2(CCN(C3Cc4ccccc4C3)C2)C1 (stereo not shown) [Example 104, 7-Indan-2-yl-2,7-diaza-spiro[4.4]nonane-2-carboxylic acid [4-(4-fluoro-phenoxy)-phenyl]-amide] | 430
Cc1ccsc1CN1CC2CC1CN2C(=O)Nc1ccc(Oc2ccccc2)cc1 (stereo not shown) [Example 1, 5-(3-Methyl-thiophen-2-ylmethyl)-2,5-diaza-bicyclo[2.2.1]heptane-2-carboxylic acid (4-phenoxy-phenyl)-amide] | 410
Cc1ccccc1C(C)N1CC2CC1CN2C(=O)NC(C)c1ccc(F)cc1 (stereo not shown) [Example 69, 5-(1-o-Tolyl-ethyl)-2,5-diaza-bicyclo[2.2.1]heptane-2-carboxylic acid [1-(4-fluoro-phenyl)-ethyl]-amide] | 17100
O=C(Nc1ccc(C(F)(F)F)cc1)N1CC2CC1CN2C1CCc2ccccc2C1 (stereo not shown) [Example 77, 5-(1,2,3,4-Tetrahydro-naphthalen-2-yl)-2,5-diaza-bicyclo[2.2.1]heptane-2-carboxylic acid (4-trifluoromethyl-phenyl)-amide] | 590
Cc1ccccc1C(C)N1CC2CC1CN2C(=O)Nc1ccc(Cc2ccccc2)cc1 (stereo not shown) [Example 34, 5-(1-o-Tolyl-ethyl)-2,5-diaza-bicyclo[2.2.1]heptane-2-carboxylic acid (4-benzyl-phenyl)-amide] | 640
Cc1ccccc1C(C)N1CC2CC1CN2C(=O)Nc1ccc(OCC2CCCO2)cc1 (stereo not shown) [Example 26, 5-(1-o-Tolyl-ethyl)-2,5-diaza-bicyclo[2.2.1]heptane-2-carboxylic acid [4-(tetrahydro-furan-2-ylmethoxy)-phenyl]-amide] | 16700
Cc1ccccc1C(C)N1CC2CC1CN2C(=O)Nc1ccc(OC2CCN(Cc3ccccc3)CC2)cc1 (stereo not shown) [Example 40, 5-(1-o-Tolyl-ethyl)-2,5-diaza-bicyclo[2.2.1]heptane-2-carboxylic acid [4-(1-benzyl-piperidin-4-yloxy)-phenyl]-amide] | 2010
CC(c1ccc(F)cc1Cl)N1CC2CC1CN2C(=O)Nc1ccc(Oc2ccccc2)cc1 (stereo not shown) [Example 7, 5-[1-(2-Chloro-4-fluoro-phenyl)-ethyl]-2,5-diaza-bicyclo[2.2.1]heptane-2-carboxylic acid (4-phenoxy-phenyl)-amide] | 4320
O=C(Nc1ccc(Oc2ccc(F)cc2)cc1)N1CC2CC1CN2C1Cc2ccccc2C1 (stereo not shown) [Example 106, 5-Indan-2-yl-2,5-diaza-bicyclo[2.2.1]heptane-2-carboxylic acid [4-(4-fluoro-phenoxy)-phenyl]-amide] | 170
CC(c1ccc(C#N)cc1)N1CC2CC1CN2C(=O)Nc1ccc(Oc2ccc(F)cc2)cc1 (stereo not shown) [Example 90, 5-[1-(4-Cyano-phenyl)-ethyl]-2,5-diaza-bicyclo[2.2.1]heptane-2-carboxylic acid [4-(4-fluoro-phenoxy)-phenyl]-amide] | 1400

same assay, conditions: hNav1.8 IC50, SH-SY-5Y hNav1.8 cells; FLIPR membrane potential dye; 10 μM pyrethroid, 250 nM TTX; test concentration range 100 μM-0.05 μM

Structure (SMILES) | IC50 [nM]
Cc1ccccc1C(C)N1CC2CC1CN2C(=O)Nc1ccc(Oc2ccc(F)cc2)cc1 (stereo not shown) [Example 87, 5-(1-o-Tolyl-ethyl)-2,5-diaza-bicyclo[2.2.1]heptane-2-carboxylic acid [4-(4-fluoro-phenoxy)-phenyl]-amide methanesulfonate salt] | 600
